These results are taken from patent US9248134B1, “Fe(III) complex compounds for the treatment and prophylaxis of iron deficiency symptoms and iron deficiency anemias” (Vifor (International) AG, priority 2013, dated 2016).

In this experiment the test system is Male NMRI (SPF) mice fed a low-iron diet. Description: Iron utilization in mouse model (low-iron diet). It is filed as in vivo. Particulars: stomach tube, 2 mg iron/kg body weight/day, days 1-5 and 8-12; utilization on day 15 calculated from hemoglobin increase and body weight increase. The method, then: The excellent Fe utilizations that can be accomplished through the Fe complexes according to the invention were measured by means of the following mouse model.
Male NMRI (SPF) mice (approximately 3 weeks old) were fed a low-iron diet (approx. 5 ppm iron) for approximately 3 weeks. The iron complexes were then administered to them by means of a stomach tube (2 mg iron/kg body weight/day) for 2 times 5 days, with an interruption of 2 days (days 1-5 and 8-12). 6 mice were the control group (negative control) and were administered with water instead. Utilization on day 15 was calculated from the hemoglobin increase and the body weight increase in accordance with the formula
[formula] • 0.07=Factor for 70 ml blood per kg body weight (BW) • 0.0034=Factor for 0.0034 g Fe/g Hb • Hb1=Hemoglobin level (g/l) on day 1 • Hb2(3)=Hemoglobin level (g/l) on day 8 (or 15) • BW4=body weight (g) on day 1 • BW9(14)=body weight (g) on day 8 (or 15) • Hb1 Control=average hemoglobin level (g/l) on day 1 in the control group, • Hb2(3) Control=average hemoglobin level (g/l) on day 8 (or 15) in the control group, • BW4 Control=average body weight (g) on day 1 in the control group, • BW9(14) Control=average body weight (g) on day 8 (or 15) in the control group, • Fe Dos.=entire administered iron (mg Fe) over 5 or 10 days, • Fe ut.=(Hb2(3)*BW9(14)−Hb1*BW4)*0.07*0.0034 (mg Fe) • Δ Utilization=Fe tot. utilized (examined group)−Fe ut. Control group, utilized from food, (mg Fe)
Consider “Tris-(3-hydroxy-N-(2-methoxyethyl)isonicotinamide) iron(III) complex [Example 7]”, for which the “Utilization n 15 d (abs. %)” value is recorded as 76 abs. %. The figure for “Tris-(N-butyl-3-hydroxyisonicotinamide) iron(III) complex [Example 6]” is 76 abs. %. The figure for “Tris-(3-hydroxy-N,N-dimethylisonicotinamide) iron(III) complex [Example 1]” is 68 abs. %.
